Experimental data published in patent US20250170141A1, “MRGPRX2 MODULATORS AND RELATED METHODS OF TREATMENT” (Escient Pharmaceuticals, Inc., priority 2023, published 2025).

These molecules were tested against T1, human MRGPRX2 (Homo sapiens, UniProt Q96LB1) (assay: MRGPRX2 activity: IP-One Gq HTRF assay in CHO cells, antagonism versus 0.3 uM Cortistatin-14). Settings: versus 0.3 uM Cortistatin-14 agonist, CHO cells expressing human MRGPRX2, read-out: MRGPRX2 Antagonist Activity.
T1 construct: expressed in transfected cells; host or cells: CHO cells, stably transfected (G418 and Hygromycin B selection)
T1 sequence (Q96LB1 1-330): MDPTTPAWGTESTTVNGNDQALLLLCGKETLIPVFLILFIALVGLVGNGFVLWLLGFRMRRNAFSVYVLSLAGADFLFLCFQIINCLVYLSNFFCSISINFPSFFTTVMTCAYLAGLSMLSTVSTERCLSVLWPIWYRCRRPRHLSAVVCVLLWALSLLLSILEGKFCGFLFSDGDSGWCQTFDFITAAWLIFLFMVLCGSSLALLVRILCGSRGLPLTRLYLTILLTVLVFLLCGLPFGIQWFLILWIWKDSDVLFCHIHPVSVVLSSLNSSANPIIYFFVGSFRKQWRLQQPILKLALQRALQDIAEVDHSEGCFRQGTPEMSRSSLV
Type: cell-based
Outline: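 CHO cells stably expressing human MRGPRX2 were treated with a 10-point compound curve (30 uM top, 1:3) plus 0.3 μM Cortistatin-14 in LiCl-containing Tris buffer, pH 8. Incubation was 1 h at 37 °C then 1 h at room temperature; IP-1 was detected by HTRF and IC50 came from the HTRF ratio.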

Row | SMILES | IC50
1 | O=S1(=O)N=C(NCc2ncccc2F)Nc2c1ccc(F)c2Oc1cccc(F)c1F [Compound 1-40, 5-(2,3-difluorophenoxy)-6-fluoro-3-(((3-fluoropyridin-2-yl)methyl)amino)-4H-benzo[e][1,2,4]thiadiazine 1,1-dioxide] | 100 to 500 nM
2 | O=S1(=O)N=C(NCc2ncccc2Cl)Nc2c1cc(F)c(F)c2Oc1ccccc1Cl [Compound 1-6, 5-(2-chlorophenoxy)-3-(((3-chloropyridin-2-yl)methyl)amino)-6,7-difluoro-4H-benzo[e][1,2,4]thiadiazine 1,1-dioxide] | < 100 nM
3 | N#Cc1cccc(Oc2c(F)ccc3c2NC(NCc2ncccc2F)=NS3(=O)=O)c1 [Compound 2-13, 3-((6-fluoro-3-(((3-fluoropyridin-2-yl)methyl)amino)-1,1-dioxido-4H-benzo[e][1,2,4]thiadiazin-5-yl)oxy)benzonitrile] | 501 to 1000 nM
4 | COc1ccc(C(C)c2c(F)ccc3c2NC(NCc2cccc(F)c2)=NS3(=O)=O)c(F)c1 (stereo not shown) [Compound 22-7, 6-fluoro-5-(1-(2-fluoro-4-methoxyphenyl)ethyl)-3-((3-fluorobenzyl)amino)-4H-benzo[e][1,2,4]thiadiazine 1,1-dioxide] | < 100 nM
5 | N#Cc1ccc2c(c1Oc1ccccc1Cl)NC(NCc1ncccc1F)=NS2(=O)=O [Compound 3-2, 5-(2-chlorophenoxy)-3-(((3-fluoropyridin-2-yl)methyl)amino)-4H-benzo[e][1,2,4]thiadiazine-6-carbonitrile 1,1-dioxide] | < 100 nM
6 | CC(c1ccc(N(C)C)cc1)c1c(F)ccc2c1NC(NCc1cccc(F)c1)=NS2(=O)=O (stereo not shown) [Compound 22-13, 5-(1-(4-(dimethylamino)phenyl)ethyl)-6-fluoro-3-((3-fluorobenzyl)amino)-4H-benzo[e][1,2,4]thiadiazine 1,1-dioxide] | 100 to 500 nM
7 | O=S1(=O)N=C(NCc2ncccc2F)Nc2c1ccc(Cl)c2Oc1cccc(F)c1Cl [Compound 1-51, 6-chloro-5-(2-chloro-3-fluorophenoxy)-3-(((3-fluoropyridin-2-yl)methyl)amino)-4H-benzo[e][1,2,4]thiadiazine 1,1-dioxide] | < 100 nM
8 | N#Cc1ccc(Oc2c(F)ccc3c2NC(NCc2ncccc2F)=NS3(=O)=O)cc1 [Compound 2-12, 4-((6-fluoro-3-(((3-fluoropyridin-2-yl)methyl)amino)-1,1-dioxido-4H-benzo[e][1,2,4]thiadiazin-5-yl)oxy)benzonitrile] | 1000 to 2500 nM
9 | Cc1ccc(C(C)c2c(F)ccc3c2NC(NCc2cccc(F)c2)=NS3(=O)=O)o1 (stereo not shown) [Compound 22-10, 6-fluoro-3-((3-fluorobenzyl)amino)-5-(1-(5-methylfuran-2-yl)ethyl)-4H-benzo[e][1,2,4]thiadiazine 1,1-dioxide] | < 100 nM
10 | CC(c1ccccc1F)c1c(F)ccc2c1NC(NCc1cccc(F)c1)=NS2(=O)=O (stereo not shown) [Compound 9-4, 6-fluoro-3-((3-fluorobenzyl)amino)-5-(1-(2-fluorophenyl)ethyl)-4H-benzo[e][1,2,4]thiadiazine 1,1-dioxide] | < 100 nM
11 | O=S1(=O)N=C(N2CCc3cccnc3C2)Nc2c1ccc(F)c2Oc1ccccc1Cl [Compound 1-52, 5-(2-chlorophenoxy)-3-(5,8-dihydro-1,7-naphthyridin-7(6H)-yl)-6-fluoro-4H-benzo[e][1,2,4]thiadiazine 1,1-dioxide] | > 2500 nM
12 | CC(c1cccc(OC(F)(F)F)c1)c1c(F)ccc2c1NC(NCc1cccc(F)c1)=NS2(=O)=O (stereo not shown) [Compound 22-14, 6-fluoro-3-((3-fluorobenzyl)amino)-5-(1-(3-(trifluoromethoxy)phenyl)ethyl)-4H-benzo[e][1,2,4]thiadiazine 1,1-dioxide] | 100 to 500 nM

Other lines, results leading:

Row | IC50 | SMILES
13 | 501 to 1000 nM | CC(C)(c1ccccc1F)c1cccc2c1NC(NCc1ncccc1Cl)=NS2(=O)=O [Compound 15-1, 3-(((3-chloropyridin-2-yl)methyl)amino)-5-(2-(2-fluorophenyl)propan-2-yl)-4H-benzo[e][1,2,4]thiadiazine 1,1-dioxide]
14 | 100 to 500 nM | COc1ccccc1CNC1=NS(=O)(=O)c2ccc(F)c(Oc3ccccc3Cl)c2N1 [Compound 1-31, 5-(2-chlorophenoxy)-6-fluoro-3-((2-methoxybenzyl)amino)-4H-benzo[e][1,2,4]thiadiazine 1,1-dioxide]
15 | < 100 nM | COc1cccnc1CNC1=NS(=O)(=O)c2cccc(Cc3ccccc3Cl)c2N1 [Compound 12-25, 5-(2-chlorobenzyl)-3-(((3-methoxypyridin-2-yl)methyl)amino)-4H-benzo[e][1,2,4]thiadiazine 1,1-dioxide]
16 | < 100 nM | O=S1(=O)N=C(NCc2ccccc2C(F)(F)F)Nc2c(Cc3ccccc3Cl)cccc21 [Compound 12-27, 5-(2-chlorobenzyl)-3-((2-(trifluoromethyl)benzyl)amino)-4H-benzo[e][1,2,4]thiadiazine 1,1-dioxide]
17 | < 100 nM | O=S1(=O)N=C(NCc2ccc(F)cc2F)Nc2c1ccc(F)c2Oc1ccccc1Cl [Compound 1-29, 5-(2-chlorophenoxy)-3-((2,4-difluorobenzyl)amino)-6-fluoro-4H-benzo[e][1,2,4]thiadiazine 1,1-dioxide]
18 | 1000 to 2500 nM | O=S1(=O)N=C(NCc2cccnc2F)Nc2c1cc(F)c(F)c2Cc1ccccc1Cl [Compound 4-7, 5-(2-chlorobenzyl)-6,7-difluoro-3-(((2-fluoropyridin-3-yl)methyl)amino)-4H-benzo[e][1,2,4]thiadiazine 1,1-dioxide]
19 | < 100 nM | O=S1(=O)N=C(NCc2cccc(F)c2)Nc2c(Cc3ccccc3Cl)cccc21 [Compound 12-22, 5-(2-chlorobenzyl)-3-((3-fluorobenzyl)amino)-4H-benzo[e][1,2,4]thiadiazine 1,1-dioxide]
20 | 100 to 500 nM | O=S1(=O)N=C(NCc2ncccc2F)Nc2c1ccc(F)c2CCc1ccccc1Cl [Compound 11-1, 5-(2-chlorophenethyl)-6-fluoro-3-(((3-fluoropyridin-2-yl)methyl)amino)-4H-benzo[e][1,2,4]thiadiazine 1,1-dioxide]
21 | < 100 nM | O=S1(=O)N=C(NCc2ccccc2F)Nc2c(Cc3ccccc3F)cccc21 [Compound 6-6, 5-(2-fluorobenzyl)-3-((2-fluorobenzyl)amino)-4H-benzo[e][1,2,4]thiadiazine 1,1-dioxide]
22 | 501 to 1000 nM | O=S1(=O)N=C(NCc2ncccc2F)Nc2c1ccc(F)c2Oc1c(F)cccc1F [Compound 1-33, 5-(2,6-difluorophenoxy)-6-fluoro-3-(((3-fluoropyridin-2-yl)methyl)amino)-4H-benzo[e][1,2,4]thiadiazine 1,1-dioxide]
23 | < 100 nM | O=S1(=O)N=C(NCc2ncccc2Cl)Nc2c(Cc3ccccc3Cl)cccc21 [Compound 12-3, 5-(2-chlorobenzyl)-3-(((3-chloropyridin-2-yl)methyl)amino)-4H-benzo[e][1,2,4]thiadiazine 1,1-dioxide]
24 | < 100 nM | Cc1ccc(CNC2=NS(=O)(=O)c3cccc(Cc4ccccc4Cl)c3N2)c(F)c1 [Compound 12-6, 5-(2-chlorobenzyl)-3-((2-fluoro-4-methylbenzyl)amino)-4H-benzo[e][1,2,4]thiadiazine 1,1-dioxide]
25 | < 100 nM | N#Cc1ccccc1Oc1c(F)ccc2c1NC(NCc1ncccc1F)=NS2(=O)=O [Compound 1-8, 2-((6-fluoro-3-(((3-fluoropyridin-2-yl)methyl)amino)-1,1-dioxido-4H-benzo[e][1,2,4]thiadiazin-5-yl)oxy)benzonitrile]
